# Results: patent publication US20060069132A1, “Azolecarboxamide herbicides” (priority 2004, published 2006)
# Where two headings read alike, the source gives them in different places.
# Key:
# [1] = test system: smallflower umbrella sedge; experiment: Test C flooded paddy test; format: in vivo, Cyperus difformis; conditions: for pest or weed control at 62 g/ha / pest or weed control at 125 g/ha / pest or weed control at 250 g/ha / pest or weed control at 500 g/ha: Cyperus difformis; for pest or weed control at 500 g/ha / Plant response rating, Sedge, Umbrella: 500 g ai/ha
# [2] = test system: morningglory; experiment: Test A pre-/postemergence herbicide test; format: in vivo, Ipomoea spp.; conditions: for pest or weed control at 500 g/ha / pest or weed control at 2000 g/ha: Ipomoea, 240 h
# Procedure, shortened: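 Both application timings were run together: directed soil spray over freshly planted seeds in sandy loam, and runoff spray onto 2–10 cm seedlings. Evaluation after ~10 days in greenhouse used a 0–100 visual scale versus untreated controls.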
# [3] = test system: rice; experiment: Test B pre-/postemergence herbicide test; format: in vivo, Oryza sativa; conditions: 0 = no effect, 100 = complete control
# Procedure, shortened: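 Plants compared with untreated controls 13–15 days post-treatment and given a visual 0–100 injury score. Applications: preemergence to seeds; postemergence at 1- to 4-leaf (2–18 cm); paddy species flooded, 2-leaf stage. Vehicle non-phytotoxic, surfactant included.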
# [4] = test system: morningglory; experiment: Test C pre-/postemergence herbicide test; format: in vivo, Ipomoea coccinea; set-up: key to Plant response rating, Morningglory: 0 = no effect, 100 = complete control
# Description: (§1) Seeds of plant species selected from bermudagrass (Cynodon dactylon (L.) Pers.), Surinam grass (Urochloa decumbens (Staph) R. D. Webster, previously named Brachiaria decumbens Stapf), cocklebur (Xanthium strumarium L.), corn (Zea mays L.), large crabgrass (Digitaria sanguinalis (L.) Scop.), woolly cupgrass (Eriochloa villosa (Thunb.) Kunth), giant foxtail (Setaria faberi Herrm.), goosegrass (Eleusine indica (L.) Gaertn.), johnsongrass (Sorghum halepense (L.) Pers.), kochia (Kochia scoparia (L.) Schrad.), lambsquarters (Chenopodium album L.), morningglory (Ipomoea coccinea L.), eastern black nightshade (Solanum ptycanthum Dunal), yellow nutsedge (Cyperus esculentus L.), pigweed (Amaranthus retroflexus L.), common ragweed (Ambrosia elatior L.), soybean (Glycine max (L.) Merr.), common (oilseed) sunflower (Helianthus annuus L.) and velvetleaf (Abutilon theophrasti Medik.) were planted and treated preemergence with test chemicals formulated in a non-phytotoxic solvent mixture which included a surfactant.
# (§2) At the same time, plants selected from these crop and weed species and also winter barley (Hordeum vulgare L.), blackgrass (Alopecurus myosuroides Huds.), canarygrass (Phalaris minor Retz.), chickweed (Stellaria media (L.) Vill.), downy bromegrass (Bromus tectorum L.), green foxtail (Setaria viridis (L.) Beauv.), Italian ryegrass (Lolium multiflorum Lam.), wheat (Triticum aestivum L.), wild oat (Avenafatua L.) and windgrass (Apera spica-venti (L.) Beauv.) were treated with postemergence applications of some of the test chemicals formulated in the same manner. Plants ranged in height from 2 to 18 cm (1- to 4-leaf stage) for postemergence treatments. Plant species in the flooded paddy test consisted of rice (Oryza sativa), smallflower umbrella sedge (Cyperus difformis L.), ducksalad (Heteranthera limosa (Sw.) Willd.) and barnyardgrass (Echinochloa crus-galli (L.) Beauv.) grown to the 2-leaf stage for testing. Treated plants and controls were maintained in a greenhouse for 12 to 14 days, after which time all species were compared to controls and visually evaluated. Plant response ratings, summarized in Table C, are based on a scale of 0 to 100 where 0 is no effect and 100 is complete control. A dash (-) response means no test result.
# [5] = test system: bermudagrass; experiment: Test C pre-/postemergence herbicide test; format: in vivo, Cynodon dactylon
# Description: as §1, §2
# [6] = test system: giant foxtail; experiment: Test C pre-/postemergence herbicide test; format: in vivo, Setaria faberi
# Description: as §1, §2
# [7] = test system: goosegrass; experiment: Test C pre-/postemergence herbicide test; format: in vivo, Eleusine indica
# Description: as §1, §2
# [8] = test system: kochia; experiment: Test C pre-/postemergence herbicide test; format: in vivo, Kochia scoparia; conditions: scale 0 to 100; for Plant response rating, Kochia: postemergence
# Description: as §1, §2
# [9] = test system: soybean; experiment: Test C pre-/postemergence herbicide test; format: in vivo, Glycine max
# Description: as §1, §2
# [10] = visual rating after 12 to 14 days, scale 0 to 100 (0 no effect, 100 complete control), read-out: Plant response rating, Sedge, Umbrella
# [11] = post-emergence, Postemergence, 500 g ai/ha, 0 to 100 scale, 0 no effect, 100 complete control, read-out: Morningglory plant response rating
# [12] = post-emergence, Postemergence, 2000 g ai/ha, 0 to 100 scale, 0 no effect, 100 complete control, read-out: Plant response rating, Morningglory
# [13] = pre-emergence, Preemergence, 500 g ai/ha, visual rating, 0 to 100 scale (0 no effect, 100 complete control), read-out: Morningglory plant response rating
# [14] = pre-emergence, Preemergence, 2000 g ai/ha, visual rating, 0 to 100 scale (0 no effect, 100 complete control), read-out: Morningglory plant response rating
# [15] = 125 g ai/ha, scale 0 to 100 (0 no effect, 100 complete control)
# [16] = 250 g ai/ha, scale of 0 to 100, 0 is no effect, 100 is complete control
# [17] = visual rating after 12 to 14 days, scale 0 to 100 (0 no effect, 100 complete control)
# [18] = 62 g ai/ha, scale 0 to 100 (0 no effect, 100 complete control)
# [19] = 125 g ai/ha, scale of 0 to 100, 0 is no effect, 100 is complete control
# [20] = Postemergence, 500 g ai/ha, 0 to 100 scale, 0 no effect, 100 complete control
# [21] = Postemergence, 2000 g ai/ha, 0 to 100 scale, 0 no effect, 100 complete control
# [22] = Preemergence, 500 g ai/ha, visual rating, 0 to 100 scale (0 no effect, 100 complete control)
# [23] = Postemergence, 500 g ai/ha, scale 0 to 100
# [24] = Postemergence, 250 g ai/ha, scale 0 to 100, 0 no effect, 100 complete control
# [25] = postemergence, 125 g ai/ha, scale 0 to 100
# [26] = postemergence, 62 g ai/ha, scale 0 to 100
structure (smiles),measurement,setting,value
"CCc1nn(C(C)C)nc1C(=O)Nc1cccc(C(=O)N(C)C)c1 [Compound 358, N-[3-[(dimethylamino)carbonyl)phenyl]-5-ethyl-2-(1-methylethyl)-2H-1,2,3-triazole-4-carboxamide]",pest or weed control at 62 g/ha,"[1]; 62 g ai/ha, scale 0 to 100, read-out: Sedge, Umbrella plant response rating",15%
same,pest or weed control at 125 g/ha,"[1]; 125 g ai/ha, scale 0 to 100 (0 no effect, 100 complete control), read-out: Sedge, Umbrella plant response rating",85%
same,pest or weed control at 250 g/ha,"[1]; 250 g ai/ha, scale of 0 to 100, 0 is no effect, 100 is complete control, read-out: Sedge, Umbrella plant response rating",85%
same,pest or weed control at 500 g/ha,[1]; [10],85%
"CCn1nc(C(C)(C)C)cc1C(=O)Nc1cccc(C(=O)OC)n1 [Compound 143, methyl 6-[[[3-(1,1-dimethylethyl)-1-ethyl-1H-pyrazol-5-yl]carbonyl]amino]-2-pyridinecarboxylate]",pest or weed control at 500 g/ha,[2]; [11],10%
same,pest or weed control at 2000 g/ha,[2]; [12],25%
same,pest or weed control at 500 g/ha,[2]; [13],0%
same,pest or weed control at 2000 g/ha,[2]; [14],0%
CCn1nc(C(C)(C)C)cc1C(=O)Nc1cc(C(=O)OC(C)C)c(F)cc1F [Compound 248],Rice plant response rating (0 to 100 scale),"[3]; 125 g ai/ha, preemergence",0
same,"Plant response rating, Rice","[3]; 500 g ai/ha, visual rating, preemergence",0
"CCOC(=O)c1ccc(F)c(NC(=O)C2CC(C(C)(C)C)=NN2CC)c1 (stereo not drawn) [Compound 267, ethyl 3-[[[3-(1,1-dimethylethyl)-1-ethyl-4,5-dihydro-1H-pyrazol-5-yl]carbonyl]amino]-4-fluorobenzoate]",plant injury at 125 g/ha,"[3]; Oryza sativa, pre-emergence, 336 h, 125 g ai/ha, read-out: Rice plant response rating (0 to 100 scale)",20%
same,plant injury at 500 g/ha,"[3]; Oryza sativa, pre-emergence, 336 h, 500 g ai/ha, visual rating, read-out: Plant response rating, Rice",40%
same,pest or weed control at 500 g/ha,[2]; [11],30%
same,pest or weed control at 2000 g/ha,[2]; [12],45%
same,pest or weed control at 2000 g/ha,[2]; [14],45%
same,pest or weed control at 500 g/ha,"[2]; pre-emergence, preemergence, 500 g ai/ha, visual injury, 0 to 100 scale (0 no effect, 100 complete control), read-out: Morningglory plant response rating",20%
C=CCOc1cccc(NC(=O)c2cc(C(C)(C)C)nn2CC)c1 [Compound 412],"Sedge, Umbrella plant response rating","[1]; 62 g ai/ha, scale 0 to 100",70
same,"Sedge, Umbrella plant response rating",[1]; [15],75
same,"Sedge, Umbrella plant response rating",[1]; [16],80
same,"Plant response rating, Sedge, Umbrella",[1]; [17],95
CCOC(=O)c1cccc(NC(=O)c2cc(C(C)(C)C)nn2CCF)c1 [Compound 79],"Sedge, Umbrella plant response rating",[1]; [18],75
same,"Sedge, Umbrella plant response rating",[1]; [19],75
same,"Sedge, Umbrella plant response rating",[1]; [16],80
same,"Plant response rating, Sedge, Umbrella",[1]; [17],85
same,"Plant response rating, Morningglory",[2]; [20],15
same,"Plant response rating, Morningglory",[2]; [21],25
same,Morningglory plant response rating,[2]; [22],20
same,Morningglory plant response rating,"[2]; Preemergence, 2000 g ai/ha, 0 to 100 scale, 0 no effect, 100 complete control",60
"CCn1nc(C(C)(C)C)cc1C(=O)Nc1cccc(C(=O)NCC(F)(F)F)c1 [Compound 43, 3-(1,1-dimethylethyl)-1-ethyl-N-[3-[[(2,2,2-trifluoroethyl)amino]carbonyl]-phenyl]-1H-pyrazole-5-carboxamide]",pest or weed control at 62 g/ha,"[1]; 62 g ai/ha, scale 0 to 100 (0 no effect, 100 complete control), read-out: Sedge, Umbrella plant response rating",30%
same,pest or weed control at 125 g/ha,"[1]; 125 g ai/ha, scale of 0 to 100, 0 is no effect, 100 is complete control, read-out: Sedge, Umbrella plant response rating",50%
same,pest or weed control at 250 g/ha,"[1]; 250 g ai/ha, visual rating after 12 to 14 days, scale 0 to 100 (0 no effect, 100 complete control), read-out: Plant response rating, Sedge, Umbrella",70%
same,pest or weed control at 500 g/ha,[1]; [10],80%
same,pest or weed control at 500 g/ha,"[2]; post-emergence, Postemergence, 500 g ai/ha, 0 to 100 scale, 0 no effect, 100 complete control, read-out: Plant response rating, Morningglory",20%
same,pest or weed control at 2000 g/ha,[2]; [12],30%
same,pest or weed control at 500 g/ha,[2]; [13],10%
same,pest or weed control at 2000 g/ha,"[2]; pre-emergence, Preemergence, 2000 g ai/ha, 0 to 100 scale, 0 no effect, 100 complete control, read-out: Morningglory plant response rating",40%
CC(=NO)c1cccc(NC(=O)c2cc(C(C)(C)C)nn2CC(F)(F)F)c1 [Compound 112],Morningglory plant response rating,[4]; [23],100
same,"Plant response rating, Morningglory",[4]; [24],70
same,"Plant response rating, Morningglory",[4]; [25],20
same,"Plant response rating, Morningglory",[4]; [26],0
same,Bermudagrass plant response rating,[5]; [23],30
same,"Plant response rating, Bermudagrass",[5]; [24],30
same,"Plant response rating, Bermudagrass",[5]; [25],0
same,"Plant response rating, Bermudagrass",[5]; [26],0
same,"Foxtail, Giant plant response rating",[6]; [23],50
same,"Plant response rating, Foxtail, Giant",[6]; [24],50
same,"Plant response rating, Foxtail, Giant",[6]; [25],50
same,"Plant response rating, Foxtail, Giant",[6]; [26],30
same,"Sedge, Umbrella plant response rating",[1]; [18],0
same,"Sedge, Umbrella plant response rating",[1]; [19],0
same,"Sedge, Umbrella plant response rating",[1]; [16],25
same,"Plant response rating, Sedge, Umbrella",[1]; [17],50
same,Goosegrass plant response rating,[7]; [23],30
same,"Plant response rating, Goosegrass",[7]; [24],30
same,"Plant response rating, Goosegrass",[7]; [25],20
same,"Plant response rating, Goosegrass",[7]; [26],20
same,Kochia plant response rating,"[8]; Postemergence, 500 g ai/ha",80
same,"Plant response rating, Kochia",[8]; 125 g ai/ha,20
same,"Plant response rating, Kochia",[8]; 62 g ai/ha,0
same,Morningglory plant response rating,[2]; [20],20
same,"Plant response rating, Morningglory",[2]; [21],15
same,Morningglory plant response rating,[2]; [22],20
same,Morningglory plant response rating,"[2]; Preemergence, 2000 g ai/ha, visual rating, 0 to 100 scale (0 no effect, 100 complete control)",45
same,Soybean plant response rating,[9]; [23],60
same,"Plant response rating, Soybean",[9]; [24],50
same,"Plant response rating, Soybean",[9]; [25],0
same,"Plant response rating, Soybean",[9]; [26],0
C#CCOc1cccc(NC(=O)c2cc(C(C)(C)C)nn2CC)c1 [Compound 411],"Sedge, Umbrella plant response rating","[1]; 62 g ai/ha, scale 0 to 100",60
same,"Sedge, Umbrella plant response rating",[1]; [15],75
same,"Sedge, Umbrella plant response rating",[1]; [16],80
same,"Plant response rating, Sedge, Umbrella",[1]; [17],85
C#CCNC(=O)c1cccc(NC(=O)c2nn(C(C)(C)C)nc2CC)c1 [Compound 380],"Sedge, Umbrella plant response rating","[1]; 62 g ai/ha, scale 0 to 100",80
same,"Sedge, Umbrella plant response rating",[1]; [15],85
same,"Sedge, Umbrella plant response rating",[1]; [16],85
same,"Plant response rating, Sedge, Umbrella",[1]; [17],90
